According to US9266883B2, “Ring-fused bicyclic pyridyl derivatives as FGFR4 inhibitors” (Novartis AG, priority 2013, dated 2016):

These compounds were tested against Tel-FGFR4 (Homo sapiens (Human), UniProt P22455) (assay: In vitro cellular kinase assay for FGFR4 (BaF3-Tel-FGFR4 cells, MSD capture ELISA of tyrosine phosphorylation)). Settings: BaF3-Tel-FGFR4 cells, 1 hour incubation; read-out: Cellular BaF3 FGFR4 IC50.
Type: cell-based

Chain of Tel-FGFR4 (P22455 other isoform, or with tags, fused parts or gaps): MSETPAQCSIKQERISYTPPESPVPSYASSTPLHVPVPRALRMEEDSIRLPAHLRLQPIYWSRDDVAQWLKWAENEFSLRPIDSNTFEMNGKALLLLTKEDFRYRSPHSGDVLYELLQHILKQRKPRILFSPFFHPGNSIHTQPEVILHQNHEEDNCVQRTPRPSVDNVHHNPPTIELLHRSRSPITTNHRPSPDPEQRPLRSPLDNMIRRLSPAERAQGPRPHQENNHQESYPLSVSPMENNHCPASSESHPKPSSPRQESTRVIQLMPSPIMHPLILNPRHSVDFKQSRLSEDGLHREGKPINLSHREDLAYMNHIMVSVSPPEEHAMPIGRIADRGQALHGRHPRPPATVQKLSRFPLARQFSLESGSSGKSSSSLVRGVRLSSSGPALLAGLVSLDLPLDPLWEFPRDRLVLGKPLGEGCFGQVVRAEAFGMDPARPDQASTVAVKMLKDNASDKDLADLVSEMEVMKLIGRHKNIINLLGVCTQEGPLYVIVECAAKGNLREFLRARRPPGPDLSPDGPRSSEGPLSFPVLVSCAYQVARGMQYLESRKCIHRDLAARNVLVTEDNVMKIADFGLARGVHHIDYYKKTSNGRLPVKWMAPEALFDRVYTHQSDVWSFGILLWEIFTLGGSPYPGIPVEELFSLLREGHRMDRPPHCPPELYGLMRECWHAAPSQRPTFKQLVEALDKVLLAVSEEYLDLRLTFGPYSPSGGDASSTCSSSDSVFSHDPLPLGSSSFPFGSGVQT

Row | IC50 | SMILES
1 | 0.146 µM | CN(C)CC1CN(c2cc(NC(=O)N3CCCc4cc(CO)c(C=O)nc43)ncc2C#N)CCO1 (racemic) [Example 81, N-(5-cyano-4-(2-((dimethylamino)methyl)morpholino)pyridin-2-yl)-7-formyl-6-(hydroxymethyl)-3,4-dihydro-1,8-naphthyridine-1(2H)-carboxamide]
2 | 0.037 µM | COCCNc1cc(NC(=O)N2CCCc3cc(-c4cccs4)c(C=O)nc32)ncc1C#N [Example 253, N-(5-cyano-4-((2-methoxyethyl)amino)pyridin-2-yl)-7-formyl-6-(thiophen-2-yl)-3,4-dihydro-1,8-naphthyridine-1(2H)-carboxamide]
3 | 0.0196 µM | CC(=O)N(C)Cc1cc2c(nc1C=O)N(C(=O)Nc1cc(OCc3cccs3)c(C#N)cn1)CCC2 [Example 239, N-(5-cyano-4-(thiophen-2-ylmethoxy)pyridin-2-yl)-7-formyl-6-((N-methylacetamido)methyl)-3,4-dihydro-1,8-naphthyridine-1(2H)-carboxamide]

Same assay, conditions: Cellular BaF3 FGFR4 assay; read-out: Cellular IC50

Row | IC50 | SMILES
4 | 0.0108 µM | N#Cc1cnc(NC(=O)N2CCCc3cc(C(F)F)c(C=O)nc32)cc1OCC1CNCCO1 (centres unmarked) [N-(5-cyano-4-(morpholin-2-ylmethoxy)pyridin-2-yl)-6-(difluoromethyl)-7-formyl-3,4-dihydro-1,8-naphthyridine-1(2H)-carboxamide]
5 | 0.0113 µM | CNc1cc(NC(=O)N2CCCc3cc(CN(C)C(=O)CN(C)C)c(C=O)nc32)ncc1C#N [N-(5-cyano-4-(methylamino)pyridin-2-yl)-6-((2-(dimethylamino)-N-methylacetamido)methyl)-7-formyl-3,4-dihydro-1,8-naphthyridine-1(2H)-carboxamide]
6 | 0.0037 µM | CNc1cc(NC(=O)N2CCCc3cc(CN4CCN(C)CC4=O)c(C=O)nc32)ncc1C#N [N-(5-cyano-4-(methylamino)pyridin-2-yl)-7-formyl-6-((4-methyl-2-oxopiperazin-1-yl)methyl)-3,4-dihydro-1,8-naphthyridine-1(2H)-carboxamide]

Each compound was assayed against FGFR4 (GST-FGFR4(388-802)) (Homo sapiens (Human), UniProt P22455) (assay: In-vitro biochemical kinase assay for FGFR4 (Caliper microfluidic mobility shift)). Settings: biochemical FGFR4 assay; read-out: Biochemical IC50.
Chain of FGFR4 (GST-FGFR4(388-802)) (P22455 388-802): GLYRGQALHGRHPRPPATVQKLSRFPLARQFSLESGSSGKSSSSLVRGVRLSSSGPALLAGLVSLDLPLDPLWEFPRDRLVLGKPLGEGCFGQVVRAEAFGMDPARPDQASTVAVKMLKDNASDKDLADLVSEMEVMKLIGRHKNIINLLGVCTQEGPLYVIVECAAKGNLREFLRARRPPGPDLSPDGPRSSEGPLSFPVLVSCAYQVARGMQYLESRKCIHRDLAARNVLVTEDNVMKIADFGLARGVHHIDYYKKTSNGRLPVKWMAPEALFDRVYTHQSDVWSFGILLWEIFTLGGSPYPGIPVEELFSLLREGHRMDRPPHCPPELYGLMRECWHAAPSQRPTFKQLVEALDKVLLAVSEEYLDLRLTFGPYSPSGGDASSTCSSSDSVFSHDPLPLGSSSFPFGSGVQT

Row | IC50 | SMILES
7 | 0.028 µM | COCCOc1nc(NC(=O)N2CCCc3cc(C(F)F)c(C=O)nc32)ncc1C#N [N-(5-cyano-4-(2-methoxyethoxyl)pyrimidin-2-yl)-6-(difluoromethyl)-7-formyl-3,4-dihydro-1,8-naphthyridine-1(2H)-carboxamide]
8 | 0.0016 µM | CC(=O)N(C)Cc1cc2c(nc1C=O)N(C(=O)Nc1cc(NCC(C)(C)O)c(C#N)cn1)CCC2 [N-(5-cyano-4-((2-hydroxy-2-methylpropyl)amino)pyridin-2-yl)-7-formyl-6-((N-methylacetamido)methyl)-3,4-dihydro-1,8-naphthyridine-1(2H)-carboxamide]
9 | 0.0043 µM | COCC(C)(C)Nc1cc(NC(=O)N2CCCc3cc(C(F)F)c(C=O)nc32)ncc1C#N [N-(5-cyano-4-((1-methoxy-2-methylpropan-2-yl)amino)pyridin-2-yl)-6-(difluoromethyl)-7-formyl-3,4-dihydro-1,8-naphthyridine-1(2H)-carboxamide]
10 | 0.0004 µM | CC(=O)N(C)Cc1cc2c(nc1C=O)N(C(=O)Nc1cc(O[C@H]3CCOC3)c(C#N)cn1)CCC2 [(S)-N-(5-cyano-4-((tetrahydrofuran-3-yl)oxy)pyridin-2-yl)-7-formyl-6-((N-methylacetamido)methyl)-3,4-dihydro-1,8-naphthyridine-1(2H)-carboxamide]
11 | 0.96 µM | CCc1cc(NC(=O)N2CCCc3cc(CO)c(C=O)nc32)ncc1C#N [N-(5-cyano-4-ethylpyridin-2-yl)-7-formyl-6-(hydroxymethyl)-3,4-dihydro-1,8-naphthyridine-1(2H)-carboxamide]
12 | 0.0895 µM | COc1cc(NC(=O)N2CCCc3cc(CN4CCN(C)CC4=O)c(C=O)nc32)ncc1C(F)(F)F [7-formyl-N-(4-methoxy-5-(trifluoromethyl)pyridin-2-yl)-6-((4-methyl-2-oxopiperazin-1-yl)methyl)-3,4-dihydro-1,8-naphthyridine-1(2H)-carboxamide]
13 | 0.0015 µM | CC(=O)N(C)Cc1cc2c(nc1C=O)N(C(=O)Nc1cc(OC(C)C)c(C#N)cn1)CCC2 [N-(5-cyano-4-isopropoxypyridin-2-yl)-7-formyl-6-((N-methylacetamido)methyl)-3,4-dihydro-1,8-naphthyridine-1(2H)-carboxamide]
14 | 0.35 µM | N#Cc1cnc(NC(=O)N2CCCc3cc(CO)c(C=O)nc32)cc1OCC1CNCCO1 (centres unmarked) [N-(5-cyano-4-(morpholin-2-ylmethoxy)pyridin-2-yl)-7-formyl-6-(hydroxymethyl)-3,4-dihydro-1,8-naphthyridine-1(2H)-carboxamide]
15 | 0.0005 µM | CC(=O)N(C)Cc1cc2c(nc1C=O)N(C(=O)Nc1cc(OCC(F)(F)F)c(C#N)cn1)CCC2 [N-(5-cyano-4-(2,2,2-trifluoroethoxyl)pyridin-2-yl)-7-formyl-6-((N-methylacetamido)methyl)-3,4-dihydro-1,8-naphthyridine-1(2H)-carboxamide]
16 | 0.0008 µM | COCC(C)Nc1cc(NC(=O)N2CCCc3cc(CN(C)C(C)=O)c(C=O)nc32)ncc1C#N (centres unmarked) [N-(5-cyano-4-((1-methoxypropan-2-yl)amino)pyridin-2-yl)-7-formyl-6-((N-methylacetamido)methyl)-3,4-dihydro-1,8-naphthyridine-1(2H)-carboxamide]
17 | 0.11 µM | N#Cc1cnc(NC(=O)N2CCCc3cc(C(F)F)c(C=O)nc32)cc1OCC(F)(F)F [N-(5-cyano-4-(2,2,2-trifluoroethoxyl)pyridin-2-yl)-6-(difluoromethyl)-7-formyl-3,4-dihydro-1,8-naphthyridine-1(2H)-carboxamide]

Same assay, conditions: read-out: Biochemical FGFR4 IC50

Row | SMILES | IC50
18 | CN1CCC2(CCN(c3cc(NC(=O)N4CCCc5ccc(C=O)nc54)ncc3C#N)CC2)C1 [Example 28, N-(5-cyano-4-(2-methyl-2,8-diazaspiro[4.5]decan-8-yl)pyridin-2-yl)-7-formyl-3,4-dihydro-1,8-naphthyridine-1(2H)-carboxamide] | 0.0034 µM
19 | O=Cc1nc2c(cc1CO)CCCN2C(=O)Nc1ccc(C(F)(F)F)cn1 [Example 18, 7-formyl-6-(hydroxymethyl)-N-(5-(trifluoromethyl)pyridin-2-yl)-3,4-dihydro-1,8-naphthyridine-1(2H)-carboxamide] | 0.098 µM
20 | Cc1cnc(NC(=O)N2CCCc3ccc(C=O)nc32)cc1C [Example 6, N-(4,5-dimethylpyridin-2-yl)-7-formyl-3,4-dihydro-1,8-naphthyridine-1(2H)-carboxamide] | 0.11 µM
21 | N#Cc1cnc(NC(=O)N2CCCc3ccc(C=O)nc32)cc1OC1CCOC1 (racemic) [Example 40, N-(5-cyano-4-((tetrahydrofuran-3-yl)oxy)pyridin-2-yl)-7-formyl-3,4-dihydro-1,8-naphthyridine-1(2H)-carboxamide] | 0.0007 µM
22 | N#Cc1cnc(NC(=O)N2CCCc3cc(CO)c(C=O)nc32)cc1NCCF [Example 88, N-(5-cyano-4-((2-fluoroethyl)amino)pyridin-2-yl)-7-formyl-6-(hydroxymethyl)-3,4-dihydro-1,8-naphthyridine-1(2H)-carboxamide] | 0.0023 µM
23 | CC(C)Oc1cc(NC(=O)N2CCCc3cc(C4CCOC4)c(C=O)nc32)ncc1C#N (racemic) [Example 264, N-(5-cyano-4-isopropoxypyridin-2-yl)-7-formyl-6-(tetrahydrofuran-3-yl)-3,4-dihydro-1,8-naphthyridine-1(2H)-carboxamide] | 0.001 µM
24 | N#Cc1ccc(NC(=O)N2CCCc3cc(C(F)F)c(C=O)nc32)nc1 [Example 37, N-(5-cyanopyridin-2-yl)-6-(difluoromethyl)-7-formyl-3,4-dihydro-1,8-naphthyridine-1(2H)-carboxamide] | 0.019 µM
25 | Cc1cc2c(nc1C=O)N(C(=O)Nc1ccc(C(F)(F)F)cn1)CCC2 [Example 20, 7-formyl-6-methyl-N-(5-(trifluoromethyl)pyridin-2-yl)-3,4-dihydro-1,8-naphthyridine-1(2H)-carboxamide] | 0.0685 µM
26 | CC(C)S(=O)(=O)c1ccccc1Nc1nc(NC(=O)N2CCCc3ccc(C=O)nc32)ncc1Cl [Example 16, N-(5-chloro-4-((2-(isopropylsulfonyl)phenyl)amino)pyrimidin-2-yl)-7-formyl-3,4-dihydro-1,8-naphthyridine-1(2H)-carboxamide] | 0.0002 µM
27 | O=Cc1nc2c(cc1F)CCCN2C(=O)Nc1ccc(C(F)(F)F)cn1 [Example 15, 6-fluoro-7-formyl-N-(5-(trifluoromethyl)pyridin-2-yl)-3,4-dihydro-1,8-naphthyridine-1(2H)-carboxamide] | 0.045 µM
28 | COCCNc1cc(NC(=O)N2CCCc3cc(-n4cnc(C)n4)c(C=O)nc32)ncc1C#N [Example 260, N-(5-cyano-4-((2-methoxyethyl)amino)pyridin-2-yl)-7-formyl-6-(3-methyl-1H-1,2,4-triazol-1-yl)-3,4-dihydro-1,8-naphthyridine-1(2H)-carboxamide] | 0.014 µM
29 | CN(C)CCOc1cc(NC(=O)N2CCOc3ccc([13CH]=O)nc32)ncc1C#N [Example 77, N-(5-cyano-4-(2-(dimethylamino)ethoxy)pyridin-2-yl)-6-form-^13C-yl-2H-pyrido[3,2-b][1,4]oxazine-4(3H)-carboxamide] | 0.043 µM
30 | Cc1ccc(NC(=O)N2CCOc3ccc(C=O)nc32)nc1 [Example 9, 6-formyl-N-(5-methylpyridin-2-yl)-2H-pyrido[3,2-b][1,4]oxazine-4(3H)-carboxamide] | 0.19 µM

Same assay, conditions: read-out: IC50 in the biochemical assay

Row | IC50 | SMILES
31 | > 1 µM | COCCOc1cc(NC(=O)N2CCCc3cc(CN4CCCC4=O)c(C=O)nc32)ncc1C#N [N-(5-cyano-4-(2-methoxyethoxyl)pyridin-2-yl)-7-formyl-6-((2-oxopyrrolidin-1-yl)methyl)-3,4-dihydro-1,8-naphthyridine-1(2H)-carboxamide]
32 | > 1 µM | O=Cc1nc2c(cc1CO)CCCN2C(=O)Nc1nccc(O[C@H]2CCOC2)n1 [(S)-7-formyl-6-(hydroxymethyl)-N-(4-((tetrahydrofuran-3-yl)oxy)pyrimidin-2-yl)-3,4-dihydro-1,8-naphthyridine-1(2H)-carboxamide]
